{"source": "the supplement of paper PMC10307832", "experiment_in_all_cases": "relative viability (nuclei count vs DMSO), 5 days (fraction); higher = more cells survive", "key": {"[1]": {"tested_on": "NCI-H441", "how_it_was_run": "(§1)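 Cells from lung cancer lines were seeded into 1536-well plates and, one day later, dosed by pin tool. Treatments were either a single drug or a fixed dose of an anchor drug with five library-drug doses (not always all listed) in √10 steps. After 5 days, nuclei were stained in a one-step fixation (final 0.05% Triton X-100, 1% formaldehyde, 1 ug/ml Hoechst) and counted on 4× images, and relative viability is the treated-to-vehicle nuclei ratio, as the median of duplicate plates.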"}, "[2]": {"tested_on": "SW 900", "how_it_was_run": "as §1"}, "[3]": {"tested_on": "LCLC-103H", "how_it_was_run": "as §1"}, "[4]": {"tested_on": "NCI-H460", "how_it_was_run": "as §1"}, "[5]": {"tested_on": "NCI-H1651", "how_it_was_run": "as §1"}, "[6]": {"tested_on": "LXF-289", "how_it_was_run": "as §1"}, "[7]": {"tested_on": "RERF-LC-KJ", "how_it_was_run": "as §1"}, "[8]": {"tested_on": "NCI-H1355", "how_it_was_run": "as §1"}, "[9]": {"tested_on": "NCI-H727", "how_it_was_run": "as §1"}, "[10]": {"tested_on": "NCI-H596", "how_it_was_run": "as §1"}, "[11]": {"tested_on": "NCI-H3122", "how_it_was_run": "as §1"}, "[12]": {"tested_on": "NCI-H1792", "how_it_was_run": "as §1"}, "[13]": {"tested_on": "NCI-H1915", "how_it_was_run": "as §1"}, "[14]": {"tested_on": "PC-14", "how_it_was_run": "as §1"}, "[15]": {"tested_on": "NCI-H2347", "how_it_was_run": "as §1"}, "[16]": {"tested_on": "NCI-H1755", "how_it_was_run": "as §1"}, "[17]": {"tested_on": "NCI-H322M", "how_it_was_run": "as §1"}, "[18]": {"tested_on": "NCI-H522", "how_it_was_run": "as §1"}}}
{"compound": "CCN(CC)CCCCNc1ncc2cc(-c3cc(OC)cc(OC)c3)c(NC(=O)NC(C)(C)C)nc2n1", "note": "+ NC(=O)Nc1cc(-c2cccc(F)c2)sc1C(=O)N[C@H]1CCCNC1 [AZD7762] (partner 0.2 µM)", "values": [{"measurement": "relative viability", "setting": "[1]; first compound 0.01 µM", "result": 1.16}, {"measurement": "relative viability", "setting": "[1]; first compound 0.03162 µM", "result": 1.16}, {"measurement": "relative viability", "setting": "[1]; first compound 0.1 µM", "result": 1.1}, {"measurement": "relative viability", "setting": "[1]; first compound 0.3162 µM", "result": 1.39}, {"measurement": "relative viability", "setting": "[1]; first compound 1 µM", "result": 0.921}, {"measurement": "relative viability", "setting": "[2]; first compound 0.01 µM", "result": 0.646}, {"measurement": "relative viability", "setting": "[2]; first compound 0.03162 µM", "result": 0.637}, {"measurement": "relative viability", "setting": "[2]; first compound 0.1 µM", "result": 0.626}, {"measurement": "relative viability", "setting": "[2]; first compound 0.3162 µM", "result": 0.538}, {"measurement": "relative viability", "setting": "[2]; first compound 1 µM", "result": 0.388}, {"measurement": "relative viability", "setting": "[3]; first compound 0.01 µM", "result": 0.926}, {"measurement": "relative viability", "setting": "[3]; first compound 0.03162 µM", "result": 0.843}, {"measurement": "relative viability", "setting": "[3]; first compound 0.1 µM", "result": 0.824}, {"measurement": "relative viability", "setting": "[3]; first compound 0.3162 µM", "result": 0.83}, {"measurement": "relative viability", "setting": "[3]; first compound 1 µM", "result": 0.705}, {"measurement": "relative viability", "setting": "[4]; first compound 0.01 µM", "result": 0.607}, {"measurement": "relative viability", "setting": "[4]; first compound 0.03162 µM", "result": 0.739}, {"measurement": "relative viability", "setting": "[4]; first compound 0.1 µM", "result": 0.716}, {"measurement": "relative viability", "setting": "[4]; first compound 0.3162 µM", "result": 0.821}, {"measurement": "relative viability", "setting": "[4]; first compound 1 µM", "result": 0.4}, {"measurement": "relative viability", "setting": "[5]; first compound 0.01 µM", "result": 0.444}, {"measurement": "relative viability", "setting": "[5]; first compound 0.03162 µM", "result": 0.508}, {"measurement": "relative viability", "setting": "[5]; first compound 0.1 µM", "result": 0.497}, {"measurement": "relative viability", "setting": "[5]; first compound 0.3162 µM", "result": 0.608}, {"measurement": "relative viability", "setting": "[5]; first compound 1 µM", "result": 0.397}, {"measurement": "relative viability", "setting": "[6]; first compound 0.01 µM", "result": 1.07}, {"measurement": "relative viability", "setting": "[6]; first compound 0.03162 µM", "result": 1.18}, {"measurement": "relative viability", "setting": "[6]; first compound 0.1 µM", "result": 1.16}, {"measurement": "relative viability", "setting": "[6]; first compound 0.3162 µM", "result": 0.946}, {"measurement": "relative viability", "setting": "[6]; first compound 1 µM", "result": 0.956}, {"measurement": "relative viability", "setting": "[7]; first compound 0.01 µM", "result": 0.919}, {"measurement": "relative viability", "setting": "[7]; first compound 0.03162 µM", "result": 1.04}, {"measurement": "relative viability", "setting": "[7]; first compound 0.1 µM", "result": 0.983}, {"measurement": "relative viability", "setting": "[7]; first compound 0.3162 µM", "result": 1.28}, {"measurement": "relative viability", "setting": "[7]; first compound 1 µM", "result": 1.1}, {"measurement": "relative viability", "setting": "[8]; first compound 0.01 µM", "result": 0.809}, {"measurement": "relative viability", "setting": "[8]; first compound 0.03162 µM", "result": 0.776}, {"measurement": "relative viability", "setting": "[8]; first compound 0.1 µM", "result": 0.766}, {"measurement": "relative viability", "setting": "[8]; first compound 0.3162 µM", "result": 0.801}, {"measurement": "relative viability", "setting": "[8]; first compound 1 µM", "result": 0.515}, {"measurement": "relative viability", "setting": "[9]; first compound 0.01 µM", "result": 0.766}, {"measurement": "relative viability", "setting": "[9]; first compound 0.03162 µM", "result": 0.63}, {"measurement": "relative viability", "setting": "[9]; first compound 0.1 µM", "result": 0.677}, {"measurement": "relative viability", "setting": "[9]; first compound 0.3162 µM", "result": 0.791}, {"measurement": "relative viability", "setting": "[9]; first compound 1 µM", "result": 0.667}, {"measurement": "relative viability", "setting": "[10]; first compound 0.01 µM", "result": 1.11}, {"measurement": "relative viability", "setting": "[10]; first compound 0.03162 µM", "result": 1}, {"measurement": "relative viability", "setting": "[10]; first compound 0.1 µM", "result": 1.06}, {"measurement": "relative viability", "setting": "[10]; first compound 0.3162 µM", "result": 0.979}, {"measurement": "relative viability", "setting": "[10]; first compound 1 µM", "result": 0.801}, {"measurement": "relative viability", "setting": "[11]; first compound 0.01 µM", "result": 1}, {"measurement": "relative viability", "setting": "[11]; first compound 0.03162 µM", "result": 0.987}, {"measurement": "relative viability", "setting": "[11]; first compound 0.1 µM", "result": 1.08}, {"measurement": "relative viability", "setting": "[11]; first compound 0.3162 µM", "result": 0.971}, {"measurement": "relative viability", "setting": "[11]; first compound 1 µM", "result": 1.06}, {"measurement": "relative viability", "setting": "[12]; first compound 0.01 µM", "result": 0.817}, {"measurement": "relative viability", "setting": "[12]; first compound 0.03162 µM", "result": 0.408}, {"measurement": "relative viability", "setting": "[12]; first compound 0.1 µM", "result": 0.749}, {"measurement": "relative viability", "setting": "[12]; first compound 0.3162 µM", "result": 0.673}, {"measurement": "relative viability", "setting": "[12]; first compound 1 µM", "result": 0.586}, {"measurement": "relative viability", "setting": "[13]; first compound 0.01 µM", "result": 0.655}, {"measurement": "relative viability", "setting": "[13]; first compound 0.03162 µM", "result": 0.753}, {"measurement": "relative viability", "setting": "[13]; first compound 0.1 µM", "result": 0.708}, {"measurement": "relative viability", "setting": "[13]; first compound 0.3162 µM", "result": 0.757}, {"measurement": "relative viability", "setting": "[13]; first compound 1 µM", "result": 0.736}, {"measurement": "relative viability", "setting": "[14]; first compound 0.01 µM", "result": 0.352}, {"measurement": "relative viability", "setting": "[14]; first compound 0.03162 µM", "result": 0.347}, {"measurement": "relative viability", "setting": "[14]; first compound 0.1 µM", "result": 0.568}, {"measurement": "relative viability", "setting": "[14]; first compound 0.3162 µM", "result": 0.497}, {"measurement": "relative viability", "setting": "[14]; first compound 1 µM", "result": 0.316}, {"measurement": "relative viability", "setting": "[15]; first compound 0.01 µM", "result": 0.737}, {"measurement": "relative viability", "setting": "[15]; first compound 0.03162 µM", "result": 0.622}, {"measurement": "relative viability", "setting": "[15]; first compound 0.1 µM", "result": 0.842}, {"measurement": "relative viability", "setting": "[15]; first compound 0.3162 µM", "result": 0.748}, {"measurement": "relative viability", "setting": "[15]; first compound 1 µM", "result": 0.684}, {"measurement": "relative viability", "setting": "[16]; first compound 0.01 µM", "result": 0.429}, {"measurement": "relative viability", "setting": "[16]; first compound 0.03162 µM", "result": 0.546}, {"measurement": "relative viability", "setting": "[16]; first compound 0.1 µM", "result": 0.525}, {"measurement": "relative viability", "setting": "[16]; first compound 0.3162 µM", "result": 0.421}, {"measurement": "relative viability", "setting": "[16]; first compound 1 µM", "result": 0.365}, {"measurement": "relative viability", "setting": "[17]; first compound 0.01 µM", "result": 0.578}, {"measurement": "relative viability", "setting": "[17]; first compound 0.03162 µM", "result": 0.52}, {"measurement": "relative viability", "setting": "[17]; first compound 0.1 µM", "result": 0.59}, {"measurement": "relative viability", "setting": "[17]; first compound 0.3162 µM", "result": 0.728}, {"measurement": "relative viability", "setting": "[17]; first compound 1 µM", "result": 0.559}, {"measurement": "relative viability", "setting": "[18]; first compound 0.01 µM", "result": 0.772}, {"measurement": "relative viability", "setting": "[18]; first compound 0.03162 µM", "result": 0.831}, {"measurement": "relative viability", "setting": "[18]; first compound 0.1 µM", "result": 0.846}, {"measurement": "relative viability", "setting": "[18]; first compound 0.3162 µM", "result": 0.781}, {"measurement": "relative viability", "setting": "[18]; first compound 1 µM", "result": 0.88}]}
